Article PMC11995724, “Antibiotic target discovery by integrated phenotypic and activity-based profiling of electrophilic fragments” (Cell chemical biology, 2025)
Counter-ions that a name gives are not always drawn.

Assay: in vitro
Details: human, hek293t cells

Row | SMILES | viability at 48 h, 25 µM [%]
1 | O=C(CCl)Nc1ncc(Cc2ccccc2Cl)s1 [4-P07, 2-chloro-N-{5-[(2-chlorophenyl)methyl]-1,3-thiazol-2-yl}acetamide] | -0.245
2 | O=C(CCl)Nc1cccc(S(=O)(=O)N2CCOCC2)c1 [4-P08, 2-chloro-N-[3-(morpholine-4-sulfonyl)phenyl]acetamide] | 0.715
3 | CCN(CC)S(=O)(=O)c1cc(NC(=O)C(C)Cl)ccc1C (stereo not shown) [4-P09, 2-chloro-N-[3-(diethylsulfamoyl)-4-methylphenyl]propanamide] | 69.6
4 | CCN(C(=O)CCl)c1c(N)n(Cc2ccccc2)c(=O)[nH]c1=O [4-P10, N-(6-amino-1-benzyl-2,4-dioxo-1,2,3,4-tetrahydropyrimidin-5-yl)-2-chloro-N-ethylacetamide] | 65.4
5 | CC(Cl)C(=O)NCc1cccs1 (stereo not shown) [4-P11, 2-chloro-N-[(thiophen-2-yl)methyl]propanamide] | 68.4
6 | NS(=O)(=O)c1ccc(CNC(=O)CCl)cc1 [4-P12, 2-chloro-N-[(4-sulfamoylphenyl)methyl]acetamide] | 0.879
7 | O=C(CCl)NSc1ccc([N+](=O)[O-])cc1 [4-P13, 2-chloro-N-[(4-nitrophenyl)sulfanyl]acetamide] | 3.88
8 | O=C(CCl)Nc1ccc(Cl)c(S(=O)(=O)N2CCCCC2)c1 [4-P14, 2-chloro-N-[4-chloro-3-(piperidine-1-sulfonyl)phenyl]acetamide] | -0.167
9 | CCOc1ccc(S(=O)(=O)N2CCN(C(=O)CCl)CC2)cc1 [4-P15, 2-chloro-1-[4-(4-ethoxybenzenesulfonyl)piperazin-1-yl]ethan-1-one] | 0.587
10 | CCN(C(=O)C(C)Cl)c1ccccc1 (stereo not shown) [4-P16, 2-chloro-N-ethyl-N-phenylpropanamide] | 109
11 | COc1ccc([N+](=O)[O-])cc1NC(=O)CCl [4-P17, 2-chloro-N-(2-methoxy-5-nitrophenyl)acetamide] | 0.714
12 | COc1ccc(CN2CCN(C(=O)CCl)CC2)cc1F [4-P18, 2-chloro-1-{4-[(3-fluoro-4-methoxyphenyl)methyl]piperazin-1-yl}ethan-1-one hydrochloride] | 0.482
13 | O=C(CCl)Nc1cccc(Oc2ccccc2)c1 [4-P19, 2-chloro-N-(3-phenoxyphenyl)acetamide] | 0.14
14 | Cn1cc(S(=O)(=O)N2CCOCC2)cc1C(=O)NC(=O)CCl [4-P20, N-(2-chloroacetyl)-1-methyl-4-(morpholine-4-sulfonyl)-1H-pyrrole-2-carboxamide] | 106
15 | CCS(=O)(=O)c1ccc(NC(=O)CCl)c(O)c1 [4-P21, 2-chloro-N-[4-(ethanesulfonyl)-2-hydroxyphenyl]acetamide] | 73.2
16 | COc1ccc(C2CCCN2C(=O)CCl)c(OC)c1 (stereo not shown) [4-P22, 2-chloro-1-[2-(2,4-dimethoxyphenyl)pyrrolidin-1-yl]ethan-1-one] | 0.348
17 | COc1cccc(NC(=O)CN(C)C(=O)CCl)c1 [5-A03, 2-chloro-N-{[(3-methoxyphenyl)carbamoyl]methyl}-N-methylacetamide] | 0.139
18 | Cc1nc2n(n1)CCN(C(=O)C(C)Cl)C2 (stereo not shown) [5-A04, 2-chloro-1-{2-methyl-5H,6H,7H,8H-[1,2,4]triazolo[1,5-a]pyrazin-7-yl}propan-1-one] | 107
19 | CCC(C)(C)C1CCc2c(sc(NC(=O)CCl)c2C#N)C1 (stereo not shown) [5-A05, 2-chloro-N-[3-cyano-6-(2-methylbutan-2-yl)-4,5,6,7-tetrahydro-1-benzothiophen-2-yl]acetamide] | -0.0335
20 | CN(CCC1CCCCC1)C(=O)CCl [5-A06, 2-chloro-N-(2-cyclohexylethyl)-N-methylacetamide] | 0.304
21 | CC(Cl)C(=O)Nc1cccc(S(=O)(=O)N(C)C)c1 (stereo not shown) [5-A07, 2-chloro-N-[3-(dimethylsulfamoyl)phenyl]propanamide] | 55.5
22 | O=C(CCl)N1CCN(C(=O)CC(F)(F)F)CC1 [5-A08, 1-[4-(2-chloroacetyl)piperazin-1-yl]-3,3,3-trifluoropropan-1-one] | 0.522
23 | O=C(CCl)NCC1CC(=O)N(c2ccccc2)C1 (stereo not shown) [5-A09, 2-chloro-N-[(5-oxo-1-phenylpyrrolidin-3-yl)methyl]acetamide] | 0.822
24 | CCn1nc(C)c(CN(C)C(=O)CCl)c1C [5-A10, 2-chloro-N-[(1-ethyl-3,5-dimethyl-1H-pyrazol-4-yl)methyl]-N-methylacetamide] | 1.55
25 | O=C(CCl)NC1CCC(O)(c2cccc(F)c2)CC1 (stereo not shown) [5-A11, 2-chloro-N-[4-(3-fluorophenyl)-4-hydroxycyclohexyl]acetamide] | 0.51
26 | CC(C)CN(C(=O)CCl)c1cnn(-c2ccccn2)c1 [5-A12, 2-chloro-N-(2-methylpropyl)-N-[1-(pyridin-2-yl)-1H-pyrazol-4-yl]acetamide] | 0.323
27 | Cc1cccc(C)c1NC(=O)CN(C)C(=O)CCl [5-A13, 2-chloro-N-{[(2,6-dimethylphenyl)carbamoyl]methyl}-N-methylacetamide] | 0.212
28 | Cc1nn(C)c(C)c1CN(C(=O)CCl)C1CCCCC1C (stereo not shown) [5-A14, 2-chloro-N-(2-methylcyclohexyl)-N-[(1,3,5-trimethyl-1H-pyrazol-4-yl)methyl]acetamide] | 0.467

Row | SMILES | viability at 48 h, 25 µM [%]
29 | COc1ccc(CN2CCN(C(=O)CCl)CC2)cc1 [5-A15, 2-chloro-1-{4-[(4-methoxyphenyl)methyl]piperazin-1-yl}ethan-1-one hydrochloride] | -0.117
30 | Cn1nnc(CN(C(=O)CCl)C2CCCCCCC2)n1 [5-A16, 2-chloro-N-cyclooctyl-N-[(2-methyl-2H-1,2,3,4-tetrazol-5-yl)methyl]acetamide] | 0.784
31 | CC(NC(=O)CCl)c1ccc(-c2ccccc2)cc1 (stereo not shown) [5-A17, N-(1-{[1,1'-biphenyl]-4-yl}ethyl)-2-chloroacetamide] | 123
32 | CN(C(=O)CCl)C1CCN(c2ccccc2F)C1=O (stereo not shown) [5-A18, 2-chloro-N-[1-(2-fluorophenyl)-2-oxopyrrolidin-3-yl]-N-methylacetamide] | 0.916
33 | CC(Cl)C(=O)NCc1ccc(F)cc1 (stereo not shown) [5-A19, 2-chloro-N-[(4-fluorophenyl)methyl]propanamide] | 76.2
34 | O=C(CCl)N1CCn2c(cc3ccccc32)C1 [5-A20, 2-chloro-1-{1H,2H,3H,4H-pyrazino[1,2-a]indol-2-yl}ethan-1-one] | 0.499
35 | CC(Cl)C(=O)NC(c1ccccc1)c1ccccc1 (stereo not shown) [5-A21, 2-chloro-N-(diphenylmethyl)propanamide] | 85.8
36 | Cn1cc(NC(=O)CCl)c(C(=O)NC2CCC2)n1 [5-A22, 4-(2-chloroacetamido)-N-cyclobutyl-1-methyl-1H-pyrazole-3-carboxamide] | 2.84
37 | C[C@H]1CN(C(=O)CCl)Cc2cccn21 [5-B03, 2-chloro-1-[(4S)-4-methyl-1H,2H,3H,4H-pyrrolo[1,2-a]pyrazin-2-yl]ethan-1-one] | 0.688
38 | O=C(CCl)Nc1c(Cl)cccc1C(F)(F)F [5-B04, 2-chloro-N-[2-chloro-6-(trifluoromethyl)phenyl]acetamide] | 1.62
39 | C=CCN(Cc1cccs1)C(=O)CCl [5-B06, 2-chloro-N-(prop-2-en-1-yl)-N-[(thiophen-2-yl)methyl]acetamide] | 0.0461
40 | COCc1nc(C2CCCCCN2C(=O)CCl)no1 (stereo not shown) [5-B07, 2-chloro-1-{2-[5-(methoxymethyl)-1,2,4-oxadiazol-3-yl]azepan-1-yl}ethan-1-one] | 1.24
41 | CCN(C(=O)CCl)c1cccc2ccccc12 [5-B08, 2-chloro-N-ethyl-N-(naphthalen-1-yl)acetamide] | 0.156
42 | CC(Cl)C(=O)NCc1ccco1 (stereo not shown) [5-B09, 2-chloro-N-[(furan-2-yl)methyl]propanamide] | 96.6
43 | CC(Cl)C(=O)Nc1cccc(C#N)c1 (stereo not shown) [5-B10, 2-chloro-N-(3-cyanophenyl)propanamide] | 77.3
44 | CCc1nocc1CN(C)C(=O)CCl [5-B11, 2-chloro-N-[(3-ethyl-1,2-oxazol-4-yl)methyl]-N-methylacetamide] | 1.49
45 | COC(=O)c1ccccc1NC(=O)CCl [5-B12, methyl 2-(2-chloroacetamido)benzoate] | 77.7
46 | Cc1cc(Cl)ccc1CN1CCN(C(=O)C(C)Cl)CC1 (stereo not shown) [5-B13, 2-chloro-1-{4-[(4-chloro-2-methylphenyl)methyl]piperazin-1-yl}propan-1-one] | 94.8
47 | O=C(CCl)Nc1ccccn1 [5-B14, 2-chloro-N-(pyridin-2-yl)acetamide hydrochloride] | 73.1
48 | O=C(CCl)N(Cc1ccoc1)C1CCCCC1 [5-B15, 2-chloro-N-cyclohexyl-N-[(furan-3-yl)methyl]acetamide] | 0.638
49 | O=C(CCl)Nc1c(Cl)cc(Cl)cc1Cl [5-B16, 2-chloro-N-(2,4,6-trichlorophenyl)acetamide] | 123
50 | CC(Cl)C(=O)N(Cc1nnc(-c2ccccc2Cl)o1)C1CC1 (stereo not shown) [5-B17, 2-chloro-N-{[5-(2-chlorophenyl)-1,3,4-oxadiazol-2-yl]methyl}-N-cyclopropylpropanamide] | 134
51 | CC(Cl)C(=O)Nc1cccc(CSc2ccccn2)c1 (stereo not shown) [5-B18, 2-chloro-N-{3-[(pyridin-2-ylsulfanyl)methyl]phenyl}propanamide] | 119
52 | CC(Cl)C(=O)NC1CC(C)N(c2ccccc2)C1=O (stereo not shown) [5-B19, 2-chloro-N-(5-methyl-2-oxo-1-phenylpyrrolidin-3-yl)propanamide] | 112
53 | CC(Cl)C(=O)Nc1sc2c(c1C#N)CCCCC2 (stereo not shown) [5-B20, 2-chloro-N-{3-cyano-4H,5H,6H,7H,8H-cyclohepta[b]thiophen-2-yl}propanamide] | 60
54 | CC1CN(Cc2ccccc2)CC(C)N(C(=O)C(C)Cl)C1 (stereo not shown) [5-B21, 1-(4-benzyl-2,6-dimethyl-1,4-diazepan-1-yl)-2-chloropropan-1-one] | 122
55 | CC(Cl)C(=O)N(C)Cc1ncc(C2CC2)o1 (stereo not shown) [5-B22, 2-chloro-N-[(5-cyclopropyl-1,3-oxazol-2-yl)methyl]-N-methylpropanamide] | 66.9
